*1 amine or outer side, *2 acyl side, *3 side chain or, on linkers, in order; H or OH if unused. Where a SMILES comes first, the peptide text is derived from it. Bridges are numbered along the chain shown (N, C = ends). [ ]: non-standard residue; d: D form. The star is where a group is joined. TBMB = c1c(C[*:1])cc(C[*:3])cc1C[*:2]; NHDecyl = CCCCCCCCCCN*
Test system: Sheep blood
Assay: Hemolysis assay
Format: cell-based
Conditions: Supplemental table S9; 1 hour incubation at 37 °C, lipopeptides at 32 µg/mL
Procedure, shortened: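 Washed sheep erythrocytes in PBS were incubated with serial peptide dilutions, top concentration 64 µg/mL with 2% DMSO, for 1 h at 37 °C. Released hemoglobin in the supernatant was read at 414 nm and referenced to 0.1% Triton X-100 (100% lysis) and PBS/2% DMSO (0% lysis).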

| Compound | Hemolysis [%] |
| --- | --- |
| CCCCCCCCCCNC(=O)CNC(=O)[C@@H]1CSCc2cc3cc(c2)CSC[C@H](NC(=O)[C@H](CC(C)C)NC(=O)[C@H](CC(C)C)NC(=O)[C@H](CCCNC(=N)N)NC(=O)[C@H](CCC(N)=O)NC(=O)[C@H](CC(C)C)NC(=O)[C@H](CC(C)C)NC(=O)[C@@H](NC(=O)[C@H](C)N)CSC3)C(=O)N2CCC[C@H]2C(=O)N[C@@H](Cc2ccc(O)cc2)C(=O)N[C@@H](CO)C(=O)N[C@@H]([C@@H](C)O)C(=O)N[C@@H](Cc2c[nH]cn2)C(=O)N[C@@H](C)C(=O)N1 [P8-L-(S6R, R15A)-C10] (H-ACLLQRLLCPYSTHACG-NHDecyl; linker 2-9-16 via TBMB; N-terminus assumed) | 0 |
| CCCCCCCCCCNC(=O)CNC(=O)[C@H]1CSCc2cc3cc(c2)CSC[C@@H](NC(=O)[C@@H](CC(C)C)NC(=O)[C@@H](CC(C)C)NC(=O)[C@@H](CCCNC(=N)N)NC(=O)[C@@H](CCC(N)=O)NC(=O)[C@@H](CC(C)C)NC(=O)[C@@H](CC(C)C)NC(=O)[C@H](NC(=O)[C@@H](C)N)CSC3)C(=O)N2CCC[C@@H]2C(=O)N[C@H](Cc2ccc(O)cc2)C(=O)N[C@H](CO)C(=O)N[C@H]([C@H](C)O)C(=O)N[C@H](Cc2c[nH]cn2)C(=O)N[C@H](C)C(=O)N1 [P8-D-(S6R, R15A)-C10] (H-[dA][dC][dL][dL][dQ][dR][dL][dL][dC][dP][dY][dS][dT][dH][dA][dC]G-NHDecyl; linker 2-9-16 via TBMB; N-terminus assumed) | 0 |
